The values below come from US20200405696A1, “INHIBITORS OF INDOLEAMINE 2,3-DIOXYGENASE AND/OR TRYPTOPHAN 2,3-DIOXYGENASE” (IDORSIA PHARMACEUTICALS LTD, priority 2018, published 2020).

Structures are written as SMILES.

Test [1] has as its target T1, Recombinant full-length human IDO1 (Homo sapiens, UniProt P14902).
T1 construct: Recombinant full-length human IDO1 with a N-terminal hexahistidine tag; hexahistidine (His6) (N); made in house; host or cells: E. coli
As to the kind of experiment: IDO1 enzymatic assay (NFK quantified by LCMS). It is filed as biochemical. The settings on record: 2 nM enzyme, 5 μM L-tryptophan, pH6.5, 30 minutes pre-incubation at RT; mean values when measured multiple times; read-out: hIDO activity (IC50 in nM). The procedure:
1) Testing Compounds for IDO Inhibitory Activity in an IDO1 Enzymatic Assay:
Recombinant full-length human IDO1 with a N-terminal hexahistidine tag expressed in E. coli and purified to homogeneity is incubated at a final concentration of 2 nM in assay buffer consisting of 37.5 mM phosphate buffer at pH6.5 supplemented with 10 mM ascorbic acid, 0.45 μM methylene blue, 50U/ml catalase, 0.01% BSA, and 0.01% Tween 20 (protocol modified from Seegers et al, JBS 2014). Example compounds are serially diluted in DMSO, further diluted in phosphate buffer, and added to the enzyme at final concentrations ranging from 10 μM to 0.5 nM. The final DMSO concentration is 0.6%. Following a pre-incubation of 30 minutes at RT, the reaction is started by the addition of L-tryptophan at a final concentration of 5 μM in assay buffer. After 30 minutes of incubation at RT, 3 μL of the 20 μl reaction mixture are transferred to a 384 deep well plate containing 25 μL of deionized water. 100 μl of 200 nM L-Tryptophan-(indole-d5) in cold 100% methanol are added followed by a 10 minutes centrifugation at 3220×g at 4° C. An additional 75 μL of deionized water are then added followed by a 10 minutes centrifugation at 3220×g at 4° C. The product of the reaction N′-Formylkynurenine (NFK) is quantified by LCMS and normalized to the L-Tryptophan-(indole-d5) signal. Samples with 0.6% DMSO (0% effect) and a TDO/IDO inhibitor (100% effect) are used as control samples to set the parameters for the non-linear regression necessary for the determination of the half-maximal inhibitory concentration (IC50) for each compound. For each compound concentration the percentage of activity compared to 0% and 100% effect is calculated as average±STDEV (each concentration measured in duplicate). IC50 values and curves are generated with XLfit software (IDBS) using Dose-Response One Site model 203 (four parameter logistic curve model). The calculated IC50 values may fluctuate depending on the daily assay performance. Fluctuations of this kind are known to those skilled in the art. When compounds are measured multiple times, mean values are given.

In test [2] the target is T2, Recombinant human TDO comprising amino acids 19-407 (Homo sapiens, UniProt P48775).
T2 construct: Recombinant human TDO comprising amino acids 19-407 with a N-terminal hexahistidine tag; hexahistidine (His6) (N); made in house; host or cells: E. coli
T2 sequence (P48775 19-406 limits assumed): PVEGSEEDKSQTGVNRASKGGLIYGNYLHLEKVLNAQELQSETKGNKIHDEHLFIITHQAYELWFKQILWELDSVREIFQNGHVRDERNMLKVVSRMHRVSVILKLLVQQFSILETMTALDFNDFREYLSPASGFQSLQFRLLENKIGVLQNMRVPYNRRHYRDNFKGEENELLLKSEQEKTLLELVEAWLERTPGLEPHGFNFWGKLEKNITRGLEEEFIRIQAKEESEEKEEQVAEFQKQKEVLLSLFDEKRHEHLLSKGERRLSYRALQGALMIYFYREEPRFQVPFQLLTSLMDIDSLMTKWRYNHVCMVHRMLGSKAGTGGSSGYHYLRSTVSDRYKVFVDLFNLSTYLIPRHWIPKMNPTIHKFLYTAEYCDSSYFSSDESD
As to the kind of experiment: TDO2 enzymatic assay (NFK quantified by LCMS). Format: biochemical. To be noted: 15 nM enzyme, 200 μM L-tryptophan, pH7, 30 minutes pre-incubation at RT; mean values when measured multiple times; read-out: hTDO activity (IC50 in nM). The procedure: 2) Testing Compounds for TDO Inhibitory Activity in a TDO2 Enzymatic Assay:
Recombinant human TDO comprising amino acids 19-407 with a N-terminal hexahistidine tag expressed in E. coli and purified to homogeneity is incubated at a final concentration of 15 nM in assay buffer consisting of 75 mM phosphate buffer at pH7 supplemented with 100 μM ascorbic acid, 50U/ml Catalase, 0.01% BSA, and 0.01% Tween 20 (protocol modified from Seegers et al, JBS 2014). Example compounds are serially diluted in DMSO, further diluted in phosphate buffer, and added to the reaction mixture at final concentrations ranging from 10 μM to 0.5 nM. The final DMSO concentration is 0.6%. Following a pre-incubation of 30 minutes at RT, the reaction is started by the addition of L-tryptophan at a final concentration of 200 μM in assay buffer. After 30 minutes of incubation at RT, 3 μL of the reaction mixture are transferred to a 384 deep well plate containing 25 μL of deionized water. 100 μl of 200 nM L-Tryptophan-(indole-d5) in cold 100% methanol are added followed by a 10 minutes centrifugation at 3220×g at 4° C. An additional 75 μL of deionized water are then added followed by a 10 minutes centrifugation at 3220×g at 4° C. The product of the reaction N′-Formylkynurenine (NFK) is quantified by LCMS and normalized to the L-Tryptophan-(indole-d5) signal. Samples with 0.6% DMSO (0% effect) and a TDO/IDO inhibitor (100% effect) are used as control samples to set the parameters for the non-linear regression necessary for the determination of the half-maximal inhibitory concentration (IC50) for each compound. For each compound concentration the percentage of activity compared to 0% and 100% effect is calculated as average±STDEV (each concentration measured in duplicate). IC50 values and curves are generated with XLfit software (IDBS) using Dose-Response One Site model 203 (four parameter logistic curve model). The calculated IC50 values may fluctuate depending on the daily assay performance. Fluctuations of this kind are known to those skilled in the art. When compounds are measured multiple times, mean values are given.

T1 sequence (P14902 whole entry): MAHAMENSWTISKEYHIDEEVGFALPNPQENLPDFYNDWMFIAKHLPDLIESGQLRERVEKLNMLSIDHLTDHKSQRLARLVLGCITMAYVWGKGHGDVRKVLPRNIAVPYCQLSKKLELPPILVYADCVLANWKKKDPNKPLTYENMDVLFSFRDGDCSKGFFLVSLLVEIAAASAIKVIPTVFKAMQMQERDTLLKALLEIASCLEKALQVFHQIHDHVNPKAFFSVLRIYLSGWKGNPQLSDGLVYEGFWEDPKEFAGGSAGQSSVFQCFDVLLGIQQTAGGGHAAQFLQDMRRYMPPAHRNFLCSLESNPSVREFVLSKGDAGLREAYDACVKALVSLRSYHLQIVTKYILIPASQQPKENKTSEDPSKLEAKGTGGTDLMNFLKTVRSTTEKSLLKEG

In the case of `CCc1sc2cncn2c1C(O)c1cn(-c2ccc(NC(C)=O)cc2)nn1` (racemic) [Example 110, rac-N-(4-{4-[(2-Ethyl-imidazo[5,1-b]thiazol-3-yl)-hydroxy-methyl]-[1,2,3]triazol-1-yl}-phenyl)-acetamide], the IC50 was found to be 13.1 nM in test [1] and 4290 nM in test [2].

As to `O=[N+]([O-])c1cc(-n2cc(C(O)c3c(-c4ccccc4)sc4cncn34)nn2)ccc1O` (racemic) [Example 250, rac-4-{4-[Hydroxy-(2-phenyl-imidazo[5,1-b]thiazol-3-yl)-methyl]-[1,2,3]triazol-1-yl}-2-nitro-phenol], the values for the concentration for half-maximal inhibition (IC50) in test [1] and in test [2] were 23.8 nM and 2300 nM, respectively.

For `CCc1sc2cncn2c1C(O)c1cn(-c2ccc(C(=O)N3CCOCC3)cc2)nn1` (racemic) [Example 117, rac-(4-{4-[(2-Ethyl-imidazo[5,1-b]thiazol-3-yl)-hydroxy-methyl]-[1,2,3]triazol-1-yl}-phenyl)-morpholin-4-yl-methanone], the IC50 is 93.3 nM in test [1] and > 10200 nM in test [2].

Consider `Oc1cc(-n2cc(C(O)c3c(C4CC4)sc4cncn34)nn2)cc(C(F)(F)F)c1` (racemic) [Example 219, rac-3-{4-[(2-Cyclopropyl-imidazo[5,1-b]thiazol-3-yl)-hydroxy-methyl]-[1,2,3]triazol-1-yl}-5-trifluoromethyl-phenol], for which the IC50 in test [1] is 63.2 nM; in test [2], > 10200 nM.

Consider `Oc1cc(F)c(-n2cc(C(O)c3c(C4CC4)sc4cncn34)nn2)cc1F` (racemic) [Example 331, rac-4-{4-[(2-Cyclopropyl-imidazo[5,1-b]thiazol-3-yl)-hydroxy-methyl]-[1,2,3]triazol-1-yl}-2,5-difluoro-phenol], for which the results for the IC50 in test [1] and in test [2] were 4.55 nM and 7180 nM, respectively.

With `OC(c1nc(-c2ccccc2)no1)c1c(C2CC2)sc2cncn12` (racemic) [Example 163, rac-(2-Cyclopropyl-imidazo[5,1-b]thiazol-3-yl)-(3-phenyl-[1,2,4]oxadiazol-5-yl)-methanol], the concentration for half-maximal inhibition (IC50) in test [1] was 496 nM; in test [2], > 10200 nM.

For the molecule `OC(c1cn(-c2ccc(OCc3ccccc3)c(F)c2)nn1)c1c([C@@H]2C[C@H]2F)sc2cncn12` (relative stereo) [Example 322, [1-(4-Benzyloxy-3-fluoro-phenyl)-1H-[1,2,3]triazol-4-yl]-[2-(trans-2-fluoro-cyclopropyl)-imidazo[5,1-b]thiazol-3-yl]-methanol], the IC50 in test [1] was 16.2 nM; in test [2], > 10200 nM.

Turning to `OC(c1cn(-c2ccc(OCc3ccccn3)cc2)nn1)c1c(C2CC2)sc2cncn12` (racemic) [Example 203, rac-(2-Cyclopropyl-imidazo[5,1-b]thiazol-3-yl)-{1-[4-(pyridin-2-ylmethoxy)-phenyl]-1H-[1,2,3]triazol-4-yl}-methanol], the values for the half-inhibitory concentration (IC50) in test [1] and in test [2] were 1350 nM and > 10200 nM, respectively.

On to `CCOc1ccc(-n2cc(C(O)c3c(CC)sc4cncn34)nn2)cn1` (racemic) [Example 46, rac-[1-(6-Ethoxy-pyridin-3-yl)-1H-[1,2,3]triazol-4-yl]-(2-ethyl-imidazo[5,1-b]thiazol-3-yl)-methanol], for which the IC50 in test [1] was 14.3 nM; in test [2], > 10200 nM.

Regarding `Oc1ccc(-n2cc(C(O)c3c(C4CC4)sc4cncn34)nn2)c(F)c1` (racemic) [Example 208, rac-4-{4-[(2-Cyclopropyl-imidazo[5,1-b]thiazol-3-yl)-hydroxy-methyl]-[1,2,3]triazol-1-yl}-3-fluoro-phenol], the half-inhibitory concentration (IC50) in test [1] came to 9.58 nM; in test [2], 6400 nM.

Take `Cc1ccc(-n2cc(C(O)c3c(C4CC4)sc4cncn34)nn2)cc1O` (racemic) [Example 218, rac-5-{4-[(2-Cyclopropyl-imidazo[5,1-b]thiazol-3-yl)-hydroxy-methyl]-[1,2,3]triazol-1-yl}-2-methyl-phenol]: the IC50 in test [1] is 24.1 nM; in test [2], > 10200 nM.

`COc1cc(F)c(-n2nnc(C(O)c3c(C4CC4)sc4cncn34)c2C)cc1Cl` (racemic) [Example 333, rac-[1-(5-Chloro-2-fluoro-4-methoxy-phenyl)-5-methyl-1H-[1,2,3]triazol-4-yl]-(2-cyclopropyl-imidazo[5,1-b]thiazol-3-yl)-methanol]: the IC50 is 1.46 nM in test [1] and > 10200 nM in test [2].

For the molecule `CC(=O)Nc1ccc(-n2cc(C(O)c3c(C4CC4)sc4cncn34)nn2)cc1` (racemic) [Example 95, rac-N-(4-{4-[(2-Cyclopropyl-imidazo[5,1-b]thiazol-3-yl)-hydroxy-methyl]-[1,2,3]triazol-1-yl}-phenyl)-acetamide], the IC50 in test [1] is 18.3 nM; in test [2], > 10200 nM.

Consider `CC(C)(O)CCOc1ccc(-n2cc(C(O)c3c(C4CC4)sc4cncn34)nn2)cc1` (racemic) [Example 140, rac-4-(4-{4-[(2-Cyclopropyl-imidazo[5,1-b]thiazol-3-yl)-hydroxy-methyl]-[1,2,3]triazol-1-yl}-phenoxy)-2-methyl-butan-2-ol], for which the figures for the 50% inhibitory concentration (IC50) in test [1] and in test [2] were 8.46 nM and > 10200 nM, respectively.

For the molecule `Oc1ccc(-n2cc(C(O)c3c(C4CC4)sc4cncn34)nn2)c(Cl)c1` (racemic) [Example 212, rac-3-Chloro-4-{4-[(2-cyclopropyl-imidazo[5,1-b]thiazol-3-yl)-hydroxy-methyl]-[1,2,3]triazol-1-yl}-phenol], the IC50 in test [1] stood at 10.5 nM; in test [2], 6190 nM.

As to `CC1NS(=O)(=O)c2ccc(-n3cc(C(O)c4c(C5CC5)sc5cncn45)nn3)cc21` (centres unmarked) [Example 228, (2-Cyclopropyl-imidazo[5,1-b]thiazol-3-yl)-[1-(3-methyl-1,1-dioxo-2,3-dihydro-1H-1I6-benzo[d]isothiazol-5-yl)-1H-[1,2,3]triazol-4-yl]-methanol], the IC50 was 76.1 nM in test [1] and > 10200 nM in test [2].

Turning to `COc1ccc(-n2cc(C(O)c3c(-c4ccccc4)sc4cncn34)nn2)cc1` (racemic) [Example 249, rac-[1-(4-Methoxy-phenyl)-1H-[1,2,3]triazol-4-yl]-(2-phenyl-imidazo[5,1-b]thiazol-3-yl)-methanol], the values for the IC50 in test [1] and in test [2] were 74.8 nM and > 10200 nM, respectively.

Take `CCOc1ccc(-n2cc(C(O)c3c(C)sc4cncn34)nn2)cn1` (racemic) [Example 55, rac-[1-(6-Ethoxy-pyridin-3-yl)-1H-[1,2,3]triazol-4-yl]-(2-methyl-imidazo[5,1-b]thiazol-3-yl)-methanol]: the values for the IC50 in test [1] and in test [2] were 205 nM and > 10200 nM, respectively.

In the case of `NS(=O)(=O)CCCOc1ccc(-n2cc(C(O)c3c(C4CC4)sc4cncn34)nn2)cc1` (racemic) [Example 206, rac-3-(4-{4-[(2-Cyclopropyl-imidazo[5,1-b]thiazol-3-yl)-hydroxy-methyl]-[1,2,3]triazol-1-yl}-phenoxy)-propane-1-sulfonic acid amide], the IC50 in test [1] is 7.11 nM; in test [2], > 10200 nM.
